Measurements as given in US5614548A, “Quaternary amine containing ether or ester lipid derivatives and therapeutic compositions” (priority 1994, dated 1997).
Blank lines part the entries; values can stand above or below the compound they belong to.

How the values were obtained:
[1] = system: HIV-1 binding to target T-cells; conditions: in words; cited from earlier work
HIV-1 = HIV-1 plaque assay, inhibitor added 30 minutes before infection; format: cell-based, human immunodeficiency virus type 1 (HIV-1); conditions: HIV-1 plaque formation, Table 5
Description: Dextran sulfate was used as a positive control. […] Plaques were counted at five days after infection.
By way of further background, in our assay HIV-1 syncytial plaques are seen as large, multicellular foci (10 to 25 nuclei/syncytium) that appear either brown and granular or clear. Since the number of HIV-1 syncytial plaques correlates with reverse transcriptase (RT) and p24 core antigen activity in the HIV-1 infected cell overlay fluids, the syncytial plaque assay can be used to quantify the amount of infectious virus. Reverse transcriptase activity was assayed according to a described procedure (B. J. Poeisz et al., Proc. Natl. Acad. Sci. (U.S.A.) […], 7415 (1980)). The activity of p24 core antigen induced by HIV-1 infection of CEM-SS cells was measured spectrophotometrically using the commercial Abbott EIA.
Compound E inhibited HIV-1 plaque count 43%, 83%, and 91% at concentrations of 0.2, 0.4, and 2.0 μM, respectively, compared to untreated controls. […] In other experiments addition of 0.2, 0.4 and 2.0 μM Compound E starting sixty minutes after HIV-1 infection inhibited HIV-1 plaque formation 28%, 59% and 97% respectively, compared to untreated controls.

K562-4 cells = assay: Cytostatic activity on K562-4 cells; format: cell-based; conditions: Homo sapiens; K562-4 (printed X562-4)
Method: (§1) All cells were grown in Eagle's minimum essential medium supplemented with 10% fetal bovine serum with the exception of HL-60 and K562-4 cells which were grown in RPMI 1640 medium supplemented with 10% fetal bovine serum. The KB and MH1 C1 cells, from a human nasopharyngeal carcinoma and rat hepatoma, respectively, were from American Type Culture Collection. The ChaGo cells, a human lung carcinoma, was generously provided by Dr. A. H. Tashjian. The human promyeloblastic leukemia cells, K562-4 were kindly supplied by Dr. Bismarck Lozzio. HL-60 cells, a human promyelocytic leukemia, and P388 cells, a mouse leukemia, were obtained from Dr. Y.-C. Cheng. The 77 cells were put into culture by us by excising the 7777, Morris hepatoma from a rat graciously supplied by the late Dr. H. P. Morris.
(§2) Cells were transferred or removed from monolayers for counting after a one or two minute incubation with 0.02% sodium ethylenediamine tetraacetate in phosphate-buffered saline to dislodge the cells. Flasks were seeded at a density of 1×10^3 cells per cm^2 or 2×10^4 per milliliter for suspension cultures. The HL-60 and K562-4 suspension cultures were used about 24 hours after seeding. The compounds to be tested were diluted to various concentrations and added to the monolayer cultures. All of the test compounds were dissolved in 10% dimethyl sulfoxide (DMSO) at concentrations that would give a final DMSO concentration of 0.1%. Control flasks contained 0.1% DMSO. Control cell replication was followed until approximately three doublings had occurred, and then all of the treated cells were counted.

77 cells = assay: Cytostatic activity on 77 cells; format: cell-based, rat; conditions: for IC50: 77 cells, after controls doubled three times; for 77/KB: ratio of IC50 values ± standard error of the quotient
Method: as §1, §2
(§3) The KB cells represented cells with low alkyl cleavage activity (less than the detectable level of 0.1-0.2 units per milligram protein by our assay procedure) and the 77 cells represented cells similar to normal cells with relatively high alkyl cleavage activity (1.6 units per milligram of protein). Our value for the cleavage activity of cultured 77 cells agrees well with the value of 1.4 units per milligram of protein reported by Soodsma et al, Cancer Res. 30, 309 (1970), for freshly excised 7777 Morris hepatoma tissue. In further confirmation of our assay procedure, we obtained a value of 12.6±4.1 units per milligram of protein in excised rat liver compared to 7.3 units per milligram of protein in rat liver measured by Soodsma et al.

MH1 C1 cells = assay: Cytostatic activity on MH1 C1 cells; format: cell-based, rat
Method: as §1, §2

KB cells [2] = assay: Synergism with vincristine on KB cell number; format: cell-based, human
Method: as §1, §2
For example, 1 μM VIII reduced cell number to 45% of control and 0.004 μg per milliliter vincristine caused a reduction to 27% of control. Thus, the two agents together should have reduced cell number to 12% of control if they acted additively.

KB cells [3] = assay: Cytostatic activity on KB cells; format: cell-based; conditions: Homo sapiens; KB cells, after controls doubled three times; read-out: IC50 KB
Method: as §1, §2, §3

P388 cells = assay: Cytostatic activity on P388 cells; format: cell-based; conditions: Mus musculus
Method: as §1
as §2, with “The compounds to be tested were diluted to various concentrations and added to the monolayer cultures. All of the test compounds were dissolved in 10% dimethyl sulfoxide (DMSO) at concentrations that would give a final DMSO concentration of 0.1%. Control flasks contained 0.1% DMSO.” left out

ChaGo cells = assay: Cytostatic activity on ChaGo cells; format: cell-based, human; conditions: Homo sapiens
Method: as §1, §2

HL-60 cells = assay: Cytostatic activity on HL-60 cells; format: cell-based; conditions: Homo sapiens
Method: as §1
as §2, with “The compounds to be tested were diluted to various concentrations and added to the monolayer cultures. All of the test compounds were dissolved in 10% dimethyl sulfoxide (DMSO) at concentrations that would give a final DMSO concentration of 0.1%. Control flasks contained 0.1% DMSO.” left out

[4] = system: P388 mouse leukemia cells; assay: In vivo anti-tumor activity, P388 mouse leukemia; parameters: species or system mouse (BDF1 female mice); conditions: for increased survival: days 1, 5, and 9
Description: P388 mouse leukemia cells were transplanted by intraperitoneal injection of 1×10^6 cells into BDF1 female mice on day 0. Treatments were begun on day 1. Control mice received the vehicle for the test compounds. […]

Compound: Dextran Sulfate [reference compound]
inhibition of HIV-1 binding to target T-cells [1]: a known inhibitor of HIV-1 binding to target T-cells | Inhibition (%) (HIV-1; 1 μM): 91% | Inhibition (%) (HIV-1; 1 μM, listed as dextran sulfate): 92% | Inhibition (%) (HIV-1; 2 μM): 100% | Inhibition (%) (HIV-1; 10 μM): 100%

IC50 (K562-4 cells): 1900 nM | IC50 (77 cells): 1800 ± 810 nM | IC50 (MH1 C1 cells; MH1 C1): 7.7 µM | IC50 (MH1 C1 cells; Rattus norvegicus, MH1C1, MH1 C1): 6.4 µM | IC50 (KB cells [3]): 300 ± 140 nM | IC50 (P388 cells): 420 nM | IC50 (ChaGo cells): 1000 nM
Compound: CCCCCCCCCCCCCCCCCCOCC[N+](C)(C)CCO.[I-] [VIII, 2-octadecyloxy-N,N-dimethyl-N-β-hydroxyethyl-1-ethyl ammonium iodide]
77/KB (77 cells): 5.8 ± 3.8 | sensitivity of MH1 C1 cells relative to 77 cells (MH1 C1 cells; MH1 C1 vs 77 cells): two to three times less sensitive to growth inhibition than 77 cells | activity at 1 µM (KB cells [2]; Homo sapiens, 1 μM VIII, read-out: cell number, % of control): 45% | synergism with vincristine (KB cells [2]; in words): acted synergistically with vincristine against KB cells

Compound: CC[C@]1(O)C[C@H]2CN(CCc3c([nH]c4ccccc34)[C@@](C(=O)OC)(c3cc4c(cc3OC)N(C=O)[C@H]3[C@@](O)(C(=O)OC)[C@H](OC(C)=O)[C@]5(CC)C=CCN6CC[C@]43[C@@H]65)C2)C1 [vincristine, reference compound]
cell number, % of control (KB cells [2]; 0.004 μg per milliliter vincristine): 27%

Compound: CCCCCCCCCCCCCCCCOCC[N+](C)(C)CCCO.[I-] [VI, 2-hexadecyloxy-N,N-dimethyl-N-gamma-hydroxypropyl-1-ethyl ammonium iodide]
IC50 (K562-4 cells): 2200 ± 410 nM | IC50 (77 cells): 2050 ± 910 nM | 77/KB (77 cells): 8.9 ± 4.79 | IC50 (KB cells [3]): 230 ± 70 nM | IC50 (HL-60 cells): 450 ± 11 nM | increased survival ([4]; 50 mg/kg): 26% | reduced survival ([4]; 75 mg/kg on days 1 and 2): 48% | increased survival ([4]; 75 mg/kg): 48% | in vivo activity against P388 ([4]; in words): appeared to have in vivo activity against P388 | survival time ([4]; one 50 mg/kg dose on day 1): did not affect survival time | lethality ([4]; single 100 mg/kg dose on day 1): killed all the mice by day 2
